According to patent US8063043B2, “Salts of N-[6-cis-2,6-dimethylmorpholin-4-yl)pyridine-3-yl]-2-methyl-4′-(trifluoromethoxy)[1,1′-biphenyl]-3-carboxamide” (Novartis AG, priority 2008, dated 2011):
“And” between values parts separate entries of the source, which are not always exact repeats. Identical values can stand only once. Like-named read-outs stand apart in the source and are kept apart here.

How the values were obtained:
[1] = Stability measured by degradation products (DP, HPLC area-%); format: physicochemical
Procedure: DPs are analyzed by HPLC (method see Table 3). They are calculated as area-% products. Compositions of the mixtures in mass % are as follows.
For salts in water, acetonitrile was added to dilute the 0.2% slurry to 0.1% clear solution. For salts in methanol, acetonitrile or acetonitrile/water (50:50, v/v), the corresponding solvent or solvent mixture was added to dilute the 0.2% slurry to 0.1% clear solution. For salts in 0.5% CMC, HPMC cellulose 4000 0.5%, or Tween 80, 0.8%, tetrahydrofuran and water were added to dilute the 2% slurry to 0.1% clear solution and to reach tetrahydrofuran/water 50:50 (v/v). For bulk stability samples (including the samples in excipient mixtures), acetonitrile/water (80:20, v/v) was added to make 0.1% clear solution.

[2] = Stability: appearance color (CL); format: physicochemical
[3] = Solid form after stress test (XRPD/DSC); format: physicochemical
[4] = Bulk corrosivity with stainless steel coupon; format: physicochemical; conditions: 2 day 80% r.h. with stainless steel coupon; change in the surface of the coupon
[5] = pH of 1% solution or suspension; format: physicochemical; conditions: In water
Procedure: The solutions were stirred continuously as the pH was measured.

[6] = Thermogravimetry (weight loss / loss on drying); format: physicochemical; conditions: at 150° C.
[7] = Hygroscopicity, DVS sorption/desorption isotherms; format: physicochemical; conditions: for DVS Desorp. Weight % chg. / DVS Sorp. Weight % chg.: 25° C.
Procedure: Sorption/desorption isotherms: Instrument, Surface Measurement System DVS-1 temperature at 25±0.5° C.

[8] = Crystal modification after 72 hours vibration (polymorphism behavior of slurries); format: physicochemical
Text: The slurries were filtered and the solids collected for XRPD analyses.

[9] = Wistar rats, 10 mg/kg, suspension
in vivo = conditions: Wistar, rat, 10 mg/kg, Wistar rats, suspension
[10] = Approximate solubility at 25° C.; conditions: thermodynamic from solid
[11] = individual rats, listed as Compound A Sulfate, monosulfate salt

## Cc1c(C(=O)Nc2ccc(N3C[C@@H](C)O[C@@H](C)C3)nc2)cccc1-c1ccc(OC(F)(F)F)cc1.O=S(=O)(O)O [Sulfate, mono]
[1]; 0.2% solutions or suspensions, 2 week 50° C., Acetonitrile
  DP [%]: 0.44%
[1]; 0.2% solutions or suspensions, 2 week 50° C., Acetonitrile/Water (50:50)
  DP [%]: 0.80%
[1]; 0.2% solutions or suspensions, 2 week 50° C., Methanol
  DP [%]: 0.68%
[1]; 0.2% solutions or suspensions, 2 week 50° C., Water
  DP [%]: 0.41%
[1]; 2% (or 5%) solutions or suspensions, 1 day room temperature, 0.5% CMC
  DP [%]: 0.45%
[1]; 2% (or 5%) solutions or suspensions, 1 day room temperature, HPMC Cellulose 4000 0.5%
  DP [%]: 0.47%
[1]; 2% (or 5%) solutions or suspensions, 1 day room temperature, Tween 80, 0.8%
  DP [%]: 0.43%
[1]; 2 weeks 50° C., tight container, 1% in mixture 1 (Lactose/maize starch/Aerosil/Magnesiumstearate)
  DP [%]: 0.41%
[1]; 2 weeks 50° C., tight container, 1% in mixture 2 (Mannitol/Avicel PH 102/Cutina HR)
  DP [%]: 0.44%
[1]; 2 weeks 50° C./75% r.h., 1% in mixture 1
  DP [%]: 0.70%
[1]; 2 weeks 50° C./75% r.h., 1% in mixture 2
  DP [%]: 0.41%
[1]; Solid state, 2 week 50° C., tight container, Bulk (HPLC)
  DP [%]: 0.40%
[1]; Solid state, 2 week 50° C./75% r.h., Bulk (HPLC)
  DP [%]: 0.42%
[1]; Solid state, 2 week 80° C., tight container, Bulk (HPLC)
  DP [%]: 0.43%
[1]; Solid state, 2 week 80° C./75% r.h., Bulk (HPLC)
  DP [%]: 1.34%
[1]; Unstressed drug substance, bulk
  DP [%]: 0.42%
[1]; Xenon light (approx. 1200 kLuxh), Bulk (HPLC)
  DP [%]: 1.1%
[2]; 0.2% solutions or suspensions, 2 week 50° C., Acetonitrile/Water (50:50), clear solution after stress test (*)
  CL: A *
[2]; 0.2% solutions or suspensions, 2 week 50° C., Acetonitrile, clear solution after stress test (*)
  CL: A *
[2]; 0.2% solutions or suspensions, 2 week 50° C., Methanol, clear solution after stress test (*)
  CL: A *
[2]; 0.2% solutions or suspensions, 2 week 50° C., Water, suspension (↓)
  CL: A ↓
[2]; 2% (or 5%) solutions or suspensions, 1 day room temperature, 0.5% CMC, suspension (↓)
  CL: A ↓
[2]; 2% (or 5%) solutions or suspensions, 1 day room temperature, HPMC Cellulose 4000 0.5%, suspension (↓)
  CL: A ↓
[2]; 2% (or 5%) solutions or suspensions, 1 day room temperature, Tween 80, 0.8%, suspension (↓)
  CL: A ↓
[3]; Solid state, 2 week 50° C., tight container
  Bulk (XRPD): change: No
[3]; Solid state, 2 week 50° C./75% r.h., footnote: new peak in the XRPD pattern compared with unstressed diphosphate
  Bulk (XRPD): change: No
[3]; Solid state, 2 week 80° C., tight container
  Bulk (DSC): change: No
[3]; Solid state, 2 week 80° C./75% r.h., footnote: pattern similar to that of phosphate, with one extra peak
  Bulk (XRPD): change: No
[3]; Xenon light (approx. 1200 kLuxh)
  Bulk (XRPD): change: No
[4]
  Bulk corrosivity: No visible change
[5]
  pH of 1% solution or suspension: 1.45
[6]; Heating rate 10° C./min
  Thermogravimetry (weight loss in %): 1.89% at 150 °C
[6]; Hygroscopicity, as is
  Loss on drying by TGA (%): 1.89 at 150 °C %
[7]
  XRPD after DVS test: No change
[7]; RH 0.0%
  DVS Desorp. Weight % chg.: 1.007%
  DVS Sorp. Weight % chg.: 0.000%
[7]; RH 25.0%
  DVS Desorp. Weight % chg.: 1.256%
  DVS Sorp. Weight % chg.: 1.232%
[7]; RH 50.0%
  DVS Desorp. Weight % chg.: 1.495%
  DVS Sorp. Weight % chg.: 1.455%
[7]; RH 75.0%
  DVS Desorp. Weight % chg.: 1.716%
  DVS Sorp. Weight % chg.: 1.634%
[7]; RH 95.0%
  DVS Desorp. Weight % chg.: 2.330%
  DVS Sorp. Weight % chg.: 2.330%
[8]; 0.1N HCl solution
  Crystal modification after 72 hours vibration (DSC/XRPD/TG): XRPD pattern
[8]; Acetonitrile, N—no, Y—yes
  Crystal modification after 72 hours vibration (DSC/XRPD/TG): N, no form change
[8]; Ethanol, N—no, Y—yes
  Crystal modification after 72 hours vibration (DSC/XRPD/TG): N, no form change
[8]; Ethyl acetate, N—no, Y—yes
  Crystal modification after 72 hours vibration (DSC/XRPD/TG): N, no form change
[8]; Iso Propanol, N—no, Y—yes
  Crystal modification after 72 hours vibration (DSC/XRPD/TG): N, no form change
[8]; Water
  Crystal modification after 72 hours vibration (DSC/XRPD/TG): Dissociated to free
  Final pH of slurry: Final pH 1.26
[8]; pH 3 buffer
  Crystal modification after 72 hours vibration (DSC/XRPD/TG): Dissociated to free
  Final pH of slurry: Final pH 2.00
[8]; pH 6.8 buffer
  Crystal modification after 72 hours vibration (DSC/XRPD/TG): Dissociated to free
  Final pH of slurry: Final pH 1.82
[9]
  less exposure in-vivo than the diphosphate salt: about 40%
[9]; [11]
  AUC0-24/dose: 2590 (ng*h/mL)/(mg/kg/day) and 2870 (ng*h/mL)/(mg/kg/day) and 3620 (ng*h/mL)/(mg/kg/day)
  Cmax: 1860 ng/mL and 3560 ng/mL
  Cmax/Dose: 190 (ng/mL)/(mg/kg/day) (2×) and 360 (ng/mL)/(mg/kg/day)
  tmax: 4 h and 2 h and 1 h
In vivo; Cmax, individual rats
  Cmax: 1900 ng/mL
In vivo; mean tmax
  tmax: 2.3 h
[10]; 0.1N HCl, pH 1, simulated gastric fluid
  solubility at 1 day: 3 µg/mL
[10]; 2-propanol, organic solvent or mixture
  solubility at 1 day: 4000 µg/mL
[10]; acetone, organic solvent or mixture
  solubility at 1 day: 1700 µg/mL
[10]; acetonitrile, organic solvent or mixture
  solubility at 1 day: 1400 µg/mL
[10]; ethanol, organic solvent or mixture
  solubility at 1 day: 19700 µg/mL
[10]; ethyl acetate, organic solvent or mixture
  solubility at 1 day: 90 µg/mL
[10]; methanol, organic solvent or mixture
  solubility at 1 day: 24400 µg/mL
[10]; phosphate buffer, pH 6.8, aqueous buffer
  solubility at 1 day: 2 µg/mL
[10]; water
  solubility at 1 day: 7 µg/mL
